This is an account of results in patent US7553832B2, “Methods and compositions for specific inhibition of protein splicing by small molecules” (Boston Biomedical Research Institute, priority 2005, dated 2009).

Values after ≈ are worked out from the molar mass of the structure shown. Marks after values point to notes of the source that are not given here. Where only a bound is given, the exact number is not on record here.

The target in assay [1] is T1, M. tuberculosis RecA intein (Mycobacterium tuberculosis, UniProt P9WHJ3).
T1 sequence (P9WHJ3 with tags, fused parts or gaps): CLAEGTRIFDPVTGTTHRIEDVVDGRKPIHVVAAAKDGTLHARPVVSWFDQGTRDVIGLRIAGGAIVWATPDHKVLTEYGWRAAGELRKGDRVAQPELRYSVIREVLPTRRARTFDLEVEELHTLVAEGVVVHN
Type of assay: biochemical.

Assay [2] deals with Mtu H37Rv. The assay can be described thus: Mtu H37Rv MIC. The format is cell-based, M. tuberculosis.
The next assay concerns BCG. The assay can be described thus: BCG MIC. The format is cell-based.
Assay [3] concerns Mtu H37Rv. Nature of the assay: Alamar Blue reduction inhibition measured by TAACF. Type of assay: cell-based, M. tuberculosis. As to conditions: Mycobacterium tuberculosis, at 6.25 μg/ml, as measured by TAACF. On the technique in general: Resazurin is reduced to fluorescent resorufin, in cell work by metabolically active cells.

A word on the IC50: it is the concentration at which inhibition is half-maximal. Low readings indicate greater potency in that assay, high ones weaker potency in that assay. In assay [1], `Oc1cc2c(cc1C(c1ccc(Cl)c(Cl)c1)N1CCCC1)OCO2` (stereo not drawn) [Compound 1] yielded an IC50 of 5 µM. The same measure, in the same setting: the value for `CCCN(CCC)S(=O)(=O)c1ccc(C(=O)SCC(=O)OCC)cc1` [Compound 2] was 8 µM. For the molecule `CS(=O)(=O)c1cc(C(F)(F)F)cc(S(C)(=O)=O)c1S(C)(=O)=O` [Compound 3], the “Mtu H37Rv MIC” value with Mtu H37Rv [2] is 20^a μg/ml. This molecule also showed an IC50 in assay [1] of 10 µM. For the same molecule, the “BCG MIC” value in the assay with BCG was determined as 20 µg/mL.

In the case of `CC(=O)c1cc([N+](=O)[O-])c(Sc2ccc(Cl)cc2)s1` [Compound 4], the IC50 in assay [1] stood at 5 µM.

As usually defined, the inhibition is the change of the read-out against control, counted positive when it falls. Higher therefore signals a response far below the control. With `O=S(=O)(c1ccc(Br)cc1)c1snnc1-c1ccccc1` [Compound 6], the IC50 in assay [1] is 4 µM. This molecule also yielded an inhibition at 6.25 µg/mL with Mtu H37Rv [3] of 32%. Consider `O=S(=O)(c1ccc(Cl)c(Cl)c1)c1snnc1-c1ccccc1` [Compound 7], for which the inhibition at 6.25 µg/mL with Mtu H37Rv [3] stood at 96%. `O=C1CSC(c2ccc(Cl)cc2)C(=O)N1c1ccc(C(F)(F)F)cc1` (stereo not drawn) [Compound 8] gave a 50% inhibitory concentration (IC50) in assay [1] of 5 µM. Consider `COc1ccc(NC(=O)C(Cl)=C(Cl)[S+]([O-])Cc2ccccc2)cn1` (stereo not drawn) [Compound 9], for which the “Mtu H37Rv MIC” value in the assay with Mtu H37Rv [2] is 5^d μg/ml. Also, the 50% inhibitory concentration (IC50) in assay [1] was found to be 10 µM. In addition, the “BCG MIC” value with BCG is 5 µg/mL. In assay [1], `O=C(Nc1ccccc1)c1nnsc1S(=O)(=O)c1ccc(Cl)cc1` [Compound 10] had an IC50 of 8 µM. Turning to `O=C(c1nnsc1[S+]([O-])c1ccc(Cl)cc1)N1CCCCC1` (stereo not drawn) [Compound 11], in the assay on Mtu H37Rv [2], the “Mtu H37Rv MIC” value was determined as 5 µg/mL. In assay [1], this molecule yielded an IC50 of 4 µM. Also, the “BCG MIC” value in the assay with BCG stood at 5 µg/mL. Take `O=C(Nc1ccc(F)cc1)c1nnsc1S(=O)(=O)c1ccc(Cl)cc1` [Compound 12]: in the assay on Mtu H37Rv [2], the “Mtu H37Rv MIC” value was 10 µg/mL. The molecule also registered an IC50 in assay [1] of 3 µM. The “BCG MIC” value with BCG turned out to be 20 µg/mL. Take `O=C(CCl)N1CCN2C(=O)c3ccccc3C12c1ccc(Cl)cc1` (stereo not drawn) [Compound 13]: the “Mtu H37Rv MIC” value in the assay with Mtu H37Rv [2] came to 10 µg/mL. Further, the concentration for half-maximal inhibition (IC50) in assay [1] was found to be 4 µM. Besides, the “BCG MIC” value with BCG is 20 µg/mL. For the molecule `N#CC1(C#N)C(c2cccc(I)c2)C(C(N)=O)N2C=Cc3ccccc3C21` (stereo not drawn) [Compound 17], it took 20 µM to reach half-maximal inhibition in assay [1] (IC50). Consider `N#CC1(C#N)C(c2ccccc2Cl)C1(C#N)C#N` [Compound 21], for which half-maximal inhibition in assay [1] (IC50) required 8 µM. Take `CSC(Nc1ccc(F)cc1)=C(C#N)C(=O)c1ccco1` [Compound 22]: in the assay on Mtu H37Rv [2], the “Mtu H37Rv MIC” value was 20 µg/mL. Also, in assay [1], the half-maximal inhibitory concentration (IC50) is 3 µM. With `O=C(Oc1ccc(Cl)cc1)c1snnc1-c1ccccc1` [Compound 23], the IC50 in assay [1] was found to be 3 µM. Broadly, the MIC is the least concentration at which growth counts as inhibited. In the assay on Mtu H37Rv [2] (Mycobacterium tuberculosis, H37RV), `N#CCSc1ccc(C#N)cc1` [Compound 24] registered an MIC of 5 µg/mL (≈ 28.7 µM). In assay [1], this molecule gave an IC50 of 11 µM. In assay [1], `C=CCn1c(Sc2ncnc3c2sc(=S)n3CC=C)nnc1-c1ccccc1` [Compound 27] showed an IC50 of 2 µM. Consider `N#CC(N)=C(C#N)NCc1ccccc1Sc1ccc(Cl)cc1` [Compound 29], for which, in assay [1], the IC50 was determined as 30 µM. Regarding `CC1(C)CC(=O)c2c(S(C)(=O)=O)sc(C(=O)OCc3ccccc3)c2C1` [Compound 30], half-maximal inhibition in assay [1] (IC50) required 5 µM. Also, the “BCG MIC” value in the assay on BCG is 20 µg/mL. Consider `N#Cc1nccnc1S(=O)(=O)c1cccs1` [Compound 31], for which the “Mtu H37Rv MIC” value with Mtu H37Rv [2] was found to be 10 µg/mL. The IC50 in assay [1] is 5 µM. The “BCG MIC” value in the assay on BCG was 6 µg/mL.

On to `COC(=O)c1sc(S(C)(=O)=O)c(C#N)c1-c1cc(C(C)(C)C)oc1C` [Compound 33], for which, in assay [1], inhibition was half-maximal at 4 µM (IC50). In assay [1], `O=S(=O)(c1cccc(C(F)(F)F)c1)c1snnc1-c1ccccc1` [Compound 35] gave an IC50 of 1 µM. Besides, the MIC with BCG (Mycobacterium tuberculosis variant bovis BCG, BCG, read-out: BCG MIC) was 20 µg/mL (≈ 54 µM). The molecule `O=S(=O)(Cc1cccc(C(F)(F)F)c1)c1snnc1-c1ccccc1` [Compound 36] yielded an IC50 in assay [1] of 5 µM.

Regarding `CC1(C)CC(=O)C2(C(=O)C1)C(c1ccc(Cl)cc1Cl)C2(C#N)C#N` (stereo not drawn) [Compound 37], the IC50 in assay [1] turned out to be 5 µM. Same read-out and setting: the result for `O=C(OCn1ncc(Cl)c(Cl)c1=O)c1cccc(C(F)(F)F)c1` [Compound 38] reads 0.8 µM; that for `Cn1cc(C(=O)c2cccc(Cl)c2Cl)cc1C(=O)C(Cl)(Cl)Cl` [Compound 40], 5 µM; that for `CCOC(=O)c1nnc(-c2ccccc2)nc1Sc1ccccc1C(=O)OC` [Compound 41], 2 µM. Turning to `COc1ccc(NC(=O)C(Cl)=C(Cl)[S+]([O-])Cc2ccc(C)cc2)cn1` (stereo not drawn) [Compound 43], the “Mtu H37Rv MIC” value in the assay with Mtu H37Rv [2] came to 2.5 µg/mL. Also, inhibition in assay [1] was half-maximal at 3 µM (IC50). In addition, in the assay with BCG, the “BCG MIC” value was determined as 1 µg/mL. In assay [1], `Oc1cc(OCc2ccc(C(F)(F)F)cc2)ccc1-c1cc[nH]n1` [Compound 44] yielded a half-maximal inhibitory concentration (IC50) of 5 µM. Turning to `[O-][S+](c1ccc(C(F)(F)F)cc1)c1cnn2c(Cl)nnc2c1` (stereo not drawn) [Compound 45], the “Mtu H37Rv MIC” value with Mtu H37Rv [2] was 2.5 µg/mL. Further, the IC50 in assay [1] was determined as 5 µM. Moreover, in the assay with BCG, the “BCG MIC” value worked out at 5 µg/mL. Take `COc1cccc(N(NC(=O)C(O)(c2cccc(C(F)(F)F)c2)c2cccc(C(F)(F)F)c2)C(=O)CCl)c1` [Compound 51]: half-maximal inhibition in assay [1] (IC50) was put at 2 µM. Consider `O=C(Nn1c(C2CCCCC2)nc2ccccc2c1=O)c1cc([N+](=O)[O-])cc([N+](=O)[O-])c1Cl` [Compound 53], for which the IC50 in assay [1] is 1 µM. For the same molecule, the “BCG MIC” value with BCG is about 20 µg/mL. As for `O=[N+]([O-])c1cc(C(F)(F)F)cc([N+](=O)[O-])c1Sc1nc2ccccc2[nH]1` [Compound 55], the “Mtu H37Rv MIC” value with Mtu H37Rv [2] amounted to 20 µg/mL. The same molecule gave an IC50 in assay [1] of 15 µM. The “BCG MIC” value with BCG is 5 µg/mL. With `CCOC(=O)CSc1nc2c(c(-c3cccs3)c1C#N)CN(C)CC2` [Compound 56], the IC50 in assay [1] was under 35 µM. On the same count and under the same terms, the value for `O=C(CCl)c1ccc(Cc2ncc(C(F)(F)F)cc2Cl)s1` [Compound 57] was under 5 µM.

Molecule `O=C(c1c[nH]c(C(=O)C(Cl)(Cl)Cl)c1)c1cccc(Cl)c1Cl` [Compound 59] showed a 50% inhibitory concentration (IC50) in assay [1] of under 5 µM. The same measure, in the same setting: the result for `O=C(c1c[nH]c(C(=O)C(Cl)(Cl)Cl)c1)c1ccc(Cl)cc1Cl` [Compound 62] reads under 5 µM; that for `Cc1cc(Oc2c([N+](=O)[O-])cc(C(F)(F)F)cc2[N+](=O)[O-])ccc1Cl` [Compound 64], 6 µM. Turning to `Cc1cc(S(=O)(=O)c2ccc(C(F)(F)F)cc2[N+](=O)[O-])c(Cl)cc1Cl` [Compound 66], the IC50 in assay [1] is under 5 µM. Also, in the assay with BCG, the “BCG MIC” value was over 20 µg/mL. The molecule `CCOC(=O)c1cnc2c(F)ccc(F)c2c1Oc1cncc(Cl)c1` [Compound 67] returned an IC50 in assay [1] of under 5 µM. In turn, `O=C(Sc1ccccc1)c1ccc2ncsc2c1` [Compound 68] displayed an IC50 in assay [1] of 8 µM. Same read-out and setting: the result for `Oc1cc2c(cc1C(c1ccc(C(F)(F)F)cc1)N1CCOCC1)OCO2` (stereo not drawn) [Compound 69] reads under 5 µM; that for `Oc1ccc(Br)cc1CNc1cccc(C(F)(F)F)c1` [Compound 70], 12 µM. For `CCOC(=O)c1cc(C#N)c(Sc2nnc(SCC3CC3)s2)nc1C(F)(F)F` [Compound 71], the “Mtu H37Rv MIC” value in the assay with Mtu H37Rv [2] turned out to be 10 µg/mL. Further, in assay [1], the IC50 is under 5 µM. Moreover, the “BCG MIC” value in the assay on BCG worked out at 10 µg/mL. As to `CCOC(=O)c1cc(C#N)c(Sc2nnc(SC)s2)nc1C(F)(F)F` [Compound 72], the “Mtu H37Rv MIC” value in the assay with Mtu H37Rv [2] is 10 µg/mL. Also, the IC50 in assay [1] was under 5 µM. Also, the “BCG MIC” value with BCG amounted to 10 µg/mL. In assay [1], `c1ccc(-c2cnc3nonc3n2)cc1` [Compound 74] gave an IC50 of under 5 µM. On the same count and under the same terms, the value for `O=C(Oc1cc(OC(=O)c2ccco2)cc(OC(=O)c2ccco2)c1)c1ccco1` [Compound 75] was under 5 µM; that for `O=C(Oc1ccc(Br)cc1)c1ccco1` [Compound 76] was 8 µM; that for `O=C(Oc1ccc(C=Nc2ccc(F)cc2)cc1)c1ccco1` [Compound 77] was 30 µM. Still for that read-out and setting: the value for `O=C(Oc1ccc(C=Nc2ccc(F)cc2)cc1)c1cccs1` [Compound 78] was 13 µM. Same read-out and setting: the result for `Cc1nn(C(N)=S)c(O)c1C(c1cccc(Cl)c1Cl)C(C#N)C#N` (stereo not drawn) [Compound 81] reads 12 µM.
